How the values were obtained:
MCF-7 cells = assay: Cell viability assay, MCF-7 cells (CellTiter-Glo, 168 h); assay type: cell-based; settings: Homo sapiens, MCF7
Protocol: An in vitro cell viability assay was conducted using some Example compounds following the steps below:
1. After recovery, MCF-7 cells (obtained from the Shanghai Cell Bank of the Chinese Academy of Sciences) were cultured at 37° C., 5% CO2, and 95% humidity.
2. 8 compound solutions at different concentrations were prepared for each Example compound. 50 μL of the compound solution at each concentration was added to a 96-well black plate.
3. The cell concentration was adjusted to about 30,000 cells/mL. 100 μL of the cell suspension was added to the 96-well plate, and mixed well to a final cell density of about 3,000 cells/well.
4. The 96-well plate was incubated at 37° C., 5% CO2, and 95% humidity for 168 h, i.e., 7 days.
5. The cell survival rate was measured by the method of CellTiter-Glo® Luminescent Cell Viability Assay (Promega, Cat #G7572). The fluorescence data were read on a microplate reader (EnVision™, a multi-function microplate detector, PerkinElmer).
6. The obtained fluorescence data were analyzed using the GraphPad Prism software. The cell survival rate was calculated for each Example compound at each concentration, and the IC50 interval of each Example compound was determined.

CDK6/CyclinD1 = target: T1, CDK6/CyclinD1 (Homo sapiens, UniProt Q00534); assay: In vitro cell-free CDK6/CyclinD1 kinase activity assay (TR-FRET); assay type: biochemical; settings: ATP at Km
T1 construct: purchased Carna 04-114
Protocol: It should be noted that the assay can also be conducted by a similar method. The assay steps in this Test Example are as follows:
The CDK6/CyclinD1 kinase activity was determined using a time-resolved fluorescence resonance energy transfer (TR-FRET) method. Measurements were performed in a reaction volume of 20 μL using 384-well assay plates. […] The reaction was stopped by adding a mixture of a peptide antibody (trade name: Cisbio, product No. 64CUSKAY) and Sa-XL665 (trade name: Cisbio, product No. 610SAXLB) diluted in HTRF KinEASE detection buffer (trade name: Cisbio, product No. 62SDBRDF, containing EDTA). After the mixture was incubated for 1 hour at room temperature, the plate was read. The TR-FRET signal was measured on a multimode plate reader (EnVision™, a multi-function microplate detector, PerkinElmer) at an excitation wavelength (λEx) of 330 nm and detection wavelengths (λEm) of 615 and 665 nm. The activity was determined by the ratio of fluorescence at 665 nm to that at 615 nm. For each compound, the enzyme activities of different concentrations of the compound were measured to determine IC50. The negative control contained no inhibitor. Two no-enzyme controls were used to determine baseline fluorescence levels. IC50 was obtained by fitting using the GraphPad 6.02 software.
8-10 concentrations were prepared for each compound, and formulated in DMSO. The stock concentration was 200× the working concentration. For example, if the working concentration was 100 nM, the corresponding concentration of the formulated stock solution was 20 μM.
In the analysis of in vitro inhibitory activity on CDK kinase, the IC50 value of each of the Example compounds and Reference Example compounds was determined.

T1 sequence (Q00534 whole entry): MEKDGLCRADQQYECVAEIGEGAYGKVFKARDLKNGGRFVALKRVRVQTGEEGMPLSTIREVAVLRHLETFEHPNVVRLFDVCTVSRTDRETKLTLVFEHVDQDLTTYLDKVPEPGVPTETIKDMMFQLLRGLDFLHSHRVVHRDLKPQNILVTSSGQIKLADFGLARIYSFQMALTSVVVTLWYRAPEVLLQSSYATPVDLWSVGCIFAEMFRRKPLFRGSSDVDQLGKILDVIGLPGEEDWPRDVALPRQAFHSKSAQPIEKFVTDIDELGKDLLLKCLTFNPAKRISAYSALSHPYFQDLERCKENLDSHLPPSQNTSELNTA
T1 sequence (P24385 whole entry partner): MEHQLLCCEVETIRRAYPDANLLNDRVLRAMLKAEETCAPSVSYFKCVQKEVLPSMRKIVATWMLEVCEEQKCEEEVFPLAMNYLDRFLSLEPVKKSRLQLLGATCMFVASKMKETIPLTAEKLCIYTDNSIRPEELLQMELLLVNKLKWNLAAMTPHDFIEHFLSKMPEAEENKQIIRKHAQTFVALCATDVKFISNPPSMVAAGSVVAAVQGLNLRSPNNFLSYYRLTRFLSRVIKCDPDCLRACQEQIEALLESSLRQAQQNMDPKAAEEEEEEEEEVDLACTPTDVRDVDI

| IC50 (MCF-7 cells) [µM] | IC50 (CDK6/CyclinD1) [µM] | Compound |
| --- | --- | --- |
| < 0.5 | < 0.1 | CN(C)C(=O)c1cc2cnc(Nc3ccc(N4CCC5(CC4)CNC5)cn3)nn2c1-c1ccc(Cl)cc1 [Example 44] |
| 0.5 to 2.5 | < 0.1 | CN(C)C(=O)c1cc2cnc(Nc3ccc(N4CCNC5(CC5)C4)cn3)nn2c1-c1ccc(Cl)cc1 [Example 45] |
| < 0.5 | < 0.1 | CN(C)C(=O)c1cc2cnc(Nc3ccc(N4CC5(CCNC5)C4)cn3)nn2c1-c1ccc(Cl)cc1 [Example 46] |
| 2.5 to 10 | < 0.1 | COCCOc1ccc(-c2c(C(=O)N(C)C)cc3cnc(Nc4ccc(N5CCNC6(CC6)C5)cn4)nn23)cc1 [Example 47] |
| 0.5 to 2.5 | < 0.1 | COCCOc1ccc(-c2c(C(=O)N(C)C)cc3cnc(Nc4ccc(N5CC6(CCNC6)C5)cn4)nn23)cc1 [Example 49] |
| 2.5 to 10 | < 0.1 | COCCOc1ccc(-c2c(C(=O)N(C)C)cc3cnc(Nc4ccc(N5CCC6(CCNCC6)C5)cn4)nn23)cc1 [Example 50] |
| 0.5 to 2.5 | 0.1 to 1 | O=C1CCCN1c1cc2cnc(Nc3ccc(N4CCNCC4)cn3)nn2c1-c1ccc(Cl)cc1 [Example 51] |
| 2.5 to 10 | 0.1 to 1 | O=C1CCCN1c1cc2cnc(Nc3ccc(N4CCNCC4)cn3)nn2c1C1=CCCC1 [Example 52] |
| 0.5 to 2.5 | 0.1 to 1 | COc1cc(F)ccc1-c1c(-c2cnn(C)c2)cc2cnc(Nc3ccc(N4CCNCC4)cn3)nn12 [Example 53] |
| 0.5 to 2.5 | < 0.1 | Cn1cc(-c2cc3cnc(Nc4ccc(N5CCNCC5)cn4)nn3c2-c2ccncc2)cn1 [Example 54] |
| < 0.5 | < 0.1 | Cn1cc(-c2cc3cnc(Nc4ccc(N5CCNCC5)cn4)nn3c2N2CCCC2)cn1 [Example 55] |
| 0.5 to 2.5 | < 0.1 | COCCOc1ccc(-c2c(C(=O)N(C)C)cc3cnc(Nc4ccc(N5CCNCC5)cn4)nn23)cc1 [Example 57] |
| 2.5 to 10 | < 0.1 | CN(C)C(=O)c1cc2cnc(Nc3ccc(N4CCNCC4)cn3)nn2c1-c1ccncc1 [Example 58] |
| 0.5 to 2.5 | < 0.1 | COc1cc(F)ccc1-c1c(C(=O)N(C)C)cc2cnc(Nc3ccc(N4CCNCC4)cn3)nn12 [Example 59] |
| 2.5 to 10 | < 0.1 | CN(C)C(=O)c1cc2cnc(Nc3ccc(N4CCNCC4)cn3)nn2c1-c1ccc(O)cc1 [Example 60] |
| 2.5 to 10 | < 0.1 | COc1cc(F)ccc1-c1c(C(=O)N(C)C)cc2cnc(Nc3ccc(N4CC5(CNC5)C4)cn3)nn12 [Example 65] |
| 2.5 to 10 | 0.1 to 1 | Cc1noc(C)c1-c1c(-c2cnn(C)c2)cc2cnc(Nc3ccc(N4CCNCC4)cn3)nn12 [Example 68] |
| 2.5 to 10 | < 0.1 | CN(C)C(=O)c1cc2cnc(Nc3ccc(N4CC5(CCNC5)C4)cn3)nn2c1-c1ccncc1 [Example 69] |
| 0.5 to 2.5 | < 0.1 | Cn1cc(-c2cc3cnc(Nc4ccc(N5CCNCC5)cn4)nn3c2C2CCCC2)cn1 [Example 71] |
| 0.5 to 2.5 | 0.1 to 1 | FC(F)n1cc(-c2cc3cnc(Nc4ccc(N5CCNCC5)cn4)nn3c2C2=CCCC2)cn1 [Example 72] |
| 0.5 to 2.5 | < 0.1 | Cn1cc(-c2cc3cnc(Nc4ccc(N5CCNCC5)cn4)nn3c2C2=CCCC2)ccc1=O [Example 73] |
| < 0.5 | < 0.1 | C1=C(c2c(-c3cn[nH]c3)cc3cnc(Nc4ccc(N5CCNCC5)cn4)nn23)CCC1 [Example 74] |
| 0.5 to 2.5 | < 0.1 | C1=C(c2c(-c3cccs3)cc3cnc(Nc4ccc(N5CCNCC5)cn4)nn23)CCC1 [Example 75] |
| 2.5 to 10 | < 0.1 | C1=C(c2c(-c3cnoc3)cc3cnc(Nc4ccc(N5CCNCC5)cn4)nn23)CCC1 [Example 76] |
| 2.5 to 10 | < 0.1 | Cc1ncc(-c2cc3cnc(Nc4ccc(N5CCNCC5)cn4)nn3c2C2=CCCC2)cn1 [Example 78] |
| 2.5 to 10 | 0.1 to 1 | Cn1cc(-c2cc3cnc(Nc4ccc(N5CCNCC5)cn4)nn3c2)cn1 [Example 81] |
